The subject of assay [1] is HCT116. As to the kind of experiment: AC50 cell viability (CellTiter-Glo); higher = less potent. As to conditions: 48 h.
In assay [2] the test system is HCT116. Nature of the assay: efficacy (fitted maximal change in viability relative to DMSO control); higher = less cytotoxic (negative = loss of viability). To be noted: 48 h.

34 compounds from the supplement of paper PMC10290057 can be followed below.

The structures appear in SMILES notation. Structures can show the parent of a compound that is named as a salt.
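Wherever AC50 cell viability (CellTiter-Glo) is given: HCT116 colorectal carcinoma cells screened at five concentrations per compound, luminescent viability scaled between DMSO wells and empty wells on each plate, curves fitted per compound.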
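Wherever efficacy (fitted maximal change in viability relative to DMSO control) is given: Luminescence-based viability readout, five doses per compound, normalized against on-plate DMSO and empty-well controls, followed by dose-response curve fitting for every drug.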

In the case of `CCC(=O)N1CCN(CC1)C2=C(C=C(C=C2)N3C(=O)\C=C/C4=C3C5=CC(=CC=C5N=C4)C6=CN=C7C=CC=CC7=C6)C(F)(F)F` [Torin-1], the AC50 cell viability in the assay on HCT116 [1] amounted to 0.0723 µM. Further, the efficacy in the assay on HCT116 [2] is -60%.

Regarding `NC1=NC=C(C=C1)C2=CC=C3N=CC\4=C(N(C(=O)\C=C4)C5=CC(=CC=C5)C(F)(F)F)C3=C2` [Torin-2], the AC50 cell viability in the assay on HCT116 [1] stood at 0.166 µM. In the assay with HCT116 [2], the efficacy is -96.6%.

Turning to `CC(C)N1N/C(=C2\C=c3cc(O)ccc3=N2)c2c(N)ncnc21` [Torkinib], the AC50 cell viability with HCT116 [1] stood at 5.25 µM. In addition, in the assay on HCT116 [2], the efficacy was -125%.

Consider `CC(C)C[C@@H](C(=O)N[C@H](C(=O)OC1CCCC1)c1ccccc1)[C@H](O)C(=O)NO` [Tosedostat], for which, in the assay with HCT116 [1], the AC50 cell viability is 4.17 µM. The efficacy with HCT116 [2] was -95.7%.

For the compound `Cc1cc(Nc2cc(N3CCN(C)CC3)nc(Sc3ccc(NC(=O)C4CC4)cc3)n2)[nH]n1` [Tozasertib], the AC50 cell viability in the assay with HCT116 [1] was determined as 7.42 µM. In addition, the efficacy in the assay with HCT116 [2] was -95.2%.

Turning to `COc1cc2c(cc1O)CCN[C@]21CS[C@@H]2c3c(OC(C)=O)c(C)c4c(c3[C@H](COC1=O)N1[C@@H]2[C@H]2c3c(cc(C)c(OC)c3O)C[C@@H]([C@@H]1O)N2C)OCO4` [Trabectedin], in the assay with HCT116 [1], the AC50 cell viability is 0.0121 µM. In the assay with HCT116 [2], the efficacy was -69.8%.

As for `CN1C(=O)C(=C/2N(C(=O)N(C3CC3)C(=O)C2=C1/NC4=CC=C(I)C=C4F)C5=CC=CC(=C5)NC(C)=O)\C` [Trametinib], the AC50 cell viability with HCT116 [1] turned out to be 0.0468 µM. In addition, the efficacy with HCT116 [2] is -62.3%.

Consider `CC(/C=C/C(=O)NO)=C\[C@@H](C)C(=O)c1ccc(N(C)C)cc1` [Trichostatin A], for which the AC50 cell viability in the assay with HCT116 [1] was 0.332 µM. For the same compound, the efficacy in the assay on HCT116 [2] was -82.3%.

With `CN1\N=C(N)/C2=C[N]([C@@H]3O[C@H](CO[P](O)(O)=O)[C@@H](O)[C@H]3O)C4=C2C1=NC=N4` [Triciribine phosphate], in the assay with HCT116 [1], the AC50 cell viability worked out at 2.95 µM. Also, in the assay with HCT116 [2], the efficacy was -90.5%.

As to `CN1CCN(CCCN2c3ccccc3Sc3ccc(C(F)(F)F)cc32)CC1` [Trifluoperazine hydrochloride], in the assay with HCT116 [1], the AC50 cell viability was 26.3 µM. For the same compound, the efficacy in the assay on HCT116 [2] was -119%.

`OC[C@H]1O[C@H](C[C@@H]1O)N2/C=C(C(=O)NC2=O)/C(F)(F)F` [Trifluridine] showed an AC50 cell viability in the assay with HCT116 [1] of 2.63 µM. Moreover, the efficacy in the assay with HCT116 [2] was -62.4%.

`C[C@]12CC[C@H]3[C@@H](CC[C@@]45O[C@@H]4\C(=C(/C[C@]35C)C#N)O)[C@@H]1CC[C@@H]2O` [Trilostane]: the AC50 cell viability with HCT116 [1] turned out to be 13.2 µM. In addition, in the assay with HCT116 [2], the efficacy is -31.9%.

For the compound `COc1cc(NCc2ccc3nc(N)nc(N)c3c2C)cc(OC)c1OC` [Trimetrexate], the AC50 cell viability with HCT116 [1] is 1.05 µM. The efficacy in the assay on HCT116 [2] was -77.8%.

As for `CC/1=C(\O)C(=O)\C=C2/C1=C\C=C3/[C@@]2(C)CC[C@@]4(C)[C@@H]5C[C@@](C)(CC[C@]5(C)CC[C@]34C)C(O)=O` [Tripterin], the AC50 cell viability with HCT116 [1] is 3.32 µM. Moreover, in the assay on HCT116 [2], the efficacy is -98.9%.

In the assay on HCT116 [1], `CC(C)[C@]12O[C@H]1[C@@H]3O[C@@]34[C@@]5(C)CC\C6=C(COC6=O)/[C@@H]5C[C@@H]7O[C@]47[C@@H]2O` [Triptolide] registered an AC50 cell viability of 0.0235 µM. In the assay with HCT116 [2], the efficacy is -52.7%.

Turning to `CC(C)[C@]12O[C@H]1[C@@H]3O[C@@]34[C@@]5(C)CC\C6=C(COC6=O)/[C@@H]5C[C@@H]7O[C@]47C2=O` [Triptonide], in the assay on HCT116 [1], the AC50 cell viability was found to be 0.0295 µM. For the same compound, the efficacy in the assay with HCT116 [2] was -59.2%.

In the assay with HCT116 [1], `Cc1c(C)c2c(c(C)c1O)CCC(C)(COc1ccc(CC3SC(=O)NC3=O)cc1)O2` (stereo not drawn) [Troglitazone] yielded an AC50 cell viability of 18.6 µM. For the same compound, the efficacy in the assay with HCT116 [2] is -55.1%.

In the assay on HCT116 [1], `CN1CCc2c(c3ccccc3n2Cc2ccc(C(=O)NO)cc2)C1` [Tubastatin A] came in with an AC50 cell viability of 10.5 µM. The efficacy in the assay on HCT116 [2] is -93.8%.

`CC1=C(OC2=CC3=NC=N[N]3C=C2)C=CC(=C1)NC4=NC=NC5=C4C=C(N\C6=N\C(C)(C)CO6)C=C5` [Tucatinib] registered an AC50 cell viability with HCT116 [1] of 20.9 µM. Besides, the efficacy in the assay with HCT116 [2] is -71.1%.

In the assay on HCT116 [1], `C=C1[C@H](OC(=O)/C=C(\C)CC)C[C@@H](C(C)C)[C@@H]2[C@H]([C@@H](C)OC(C)=O)C(=O)C[C@@H]12` [Tussilagone] registered an AC50 cell viability of 20.9 µM. Besides, the efficacy with HCT116 [2] is -67.9%.

`CN(C)CCN1C(=O)c2cccc3cc(NC(N)=O)cc(c23)C1=O` [UNBS-5162] returned an AC50 cell viability in the assay on HCT116 [1] of 4.68 µM. For the same compound, the efficacy in the assay on HCT116 [2] is -75%.

For `CCCCNc1ncc2c(-c3ccc(CN4CCN(C)CC4)cc3)cn([C@H]3CC[C@H](O)CC3)c2n1` [UNC2025 (hydrochloride)], in the assay on HCT116 [1], the AC50 cell viability turned out to be 1.66 µM. Besides, the efficacy in the assay on HCT116 [2] was -93.7%.

In turn, `CCCCNc1ncc(-c2ccc(CN3CCOCC3)cn2)c(N[C@H]2CC[C@H](O)CC2)n1` [UNC2250] displayed an AC50 cell viability with HCT116 [1] of 3.62 µM. The efficacy in the assay on HCT116 [2] is -51.5%.

In the assay with HCT116 [1], `CCCCNc1ncc2c(-c3ccc(F)cc3)nn(C[C@H]3CC[C@H](N)CC3)c2n1` [UNC-569] registered an AC50 cell viability of 7.23 µM. Besides, in the assay on HCT116 [2], the efficacy was -83.5%.

`COc1cc2c(NC3CCN(CC4CCCCC4)CC3)nc(N3CCCN(C(C)C)CC3)nc2cc1OCCCN1CCCCC1` [UNC-0631] came in with an AC50 cell viability in the assay on HCT116 [1] of 7.42 µM. The efficacy in the assay on HCT116 [2] is -106%.

Consider `COc1cc2c(NC3CCN(C(C)C)CC3)nc(C3CCCCC3)nc2cc1OCCCN1CCCC1` [UNC-0638], for which, in the assay with HCT116 [1], the AC50 cell viability worked out at 8.33 µM. Further, the efficacy in the assay with HCT116 [2] was -94.9%.

In turn, `COc1cc2c(NC3CCN(C4CCCCC4)CC3)nc(N3CCCN(C(C)C)CC3)nc2cc1OCCCN1CCCCC1` [UNC-0646] registered an AC50 cell viability with HCT116 [1] of 2.95 µM. In the assay on HCT116 [2], the efficacy is -102%.

For the compound `CCCCNc1ncc2c(-c3ccc(CN4CCN(C)CC4)cc3)cn(C3CCC(O)CC3)c2n1` (stereo not drawn) [UNC-2025], in the assay on HCT116 [1], the AC50 cell viability came to 1.66 µM. Further, the efficacy in the assay with HCT116 [2] is -74.3%.

Regarding `CC(C)Nc1cc(-c2c[nH]c(C(=O)N[C@H](CO)c3cccc(Cl)c3)c2)c(Cl)cn1` [Ulixertinib], the AC50 cell viability in the assay with HCT116 [1] was determined as 1.86 µM. For the same compound, the efficacy in the assay on HCT116 [2] was -114%.

In the assay on HCT116 [1], `CC(C)OC1=C(F)C=C(C=C1)C2=N[N]([C@@H](C)C/3=C(C4=CC(=CC=C4)F)/C(=O)C5=CC(=CC=C5O3)F)C6=C2C(=NC=N6)N` [Umbralisib] had an AC50 cell viability of 14.8 µM. Further, in the assay with HCT116 [2], the efficacy was -35.3%.

Compound `CC[C@]1(O)C[C@H]2CN(CCC3=C([NH]C4=C3C=CC=C4)[C@@](C2)(C(=O)OC)C5=C(OC)C=C6N(C)[C@H]7[C@](O)([C@H](OC(C)=O)[C@]8(CC)\C=C/CN9CC[C@]7([C@H]89)C6=C5)C(=O)OC)C1` [VINBLASTINE SULFATE] registered an AC50 cell viability with HCT116 [1] of 0.372 µM. In addition, the efficacy in the assay on HCT116 [2] is -53.2%.

In the assay with HCT116 [1], `C/C(=N\Nc1nnc2c(n1)[nH]c1c(C)cccc12)c1ccccn1` [VLX-600] returned an AC50 cell viability of 0.742 µM. Further, in the assay on HCT116 [2], the efficacy is -87.1%.

In the assay on HCT116 [1], `C=CC(=O)N1CC/C(=C\c2ccc(F)c([N+](=O)[O-])c2)C(=O)/C(=C/c2ccc(F)c([N+](=O)[O-])c2)C1` [VLX-1570] registered an AC50 cell viability of 0.295 µM. The efficacy with HCT116 [2] is -81.4%.

In the assay on HCT116 [1], `CC(C)(O)CNc1ncc(-c2ccnc(Nc3ccncc3)n2)c(CC2CC2)n1` [VPS34 Inhibitor 1 (Compound 19, PIK-III analogue)] showed an AC50 cell viability of 13.2 µM. In addition, the efficacy with HCT116 [2] was -109%.
